The structures appear in SMILES notation.

One series concerns patients with AD. More on the design: method as in PMID 29955661. The following applies: cited from earlier work.
Series [1] deals with panel of 106 targets, including receptors, enzymes, ion channels, and transporters. Nature of the series: Selectivity panel (Eurofins Panlabs), overall. To be noted: 10 μmol/L. The text has this:
(§1) The selectivity of T‐495 at 10 μmol/L against a panel of 106 targets, including receptors, enzymes, ion channels, and transporters, was characterized (Eurofins Panlabs Taiwan Ltd., Taipei, Taiwan).

Another series concerns the target T1, human M1R (Homo sapiens, UniProt P11229).
T1 sequence (P11229 1-460): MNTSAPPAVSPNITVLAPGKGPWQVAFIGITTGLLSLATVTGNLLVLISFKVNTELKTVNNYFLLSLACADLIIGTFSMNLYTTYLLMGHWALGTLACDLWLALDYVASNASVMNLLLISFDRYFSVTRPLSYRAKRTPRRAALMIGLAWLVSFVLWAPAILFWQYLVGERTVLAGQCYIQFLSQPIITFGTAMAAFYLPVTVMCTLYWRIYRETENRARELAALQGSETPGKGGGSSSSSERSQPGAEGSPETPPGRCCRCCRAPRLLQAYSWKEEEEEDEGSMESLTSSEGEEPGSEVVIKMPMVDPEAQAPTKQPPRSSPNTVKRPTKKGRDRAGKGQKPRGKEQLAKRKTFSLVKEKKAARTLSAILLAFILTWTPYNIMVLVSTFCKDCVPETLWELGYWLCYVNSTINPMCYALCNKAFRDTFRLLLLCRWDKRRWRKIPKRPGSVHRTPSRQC
The series is described as follows: [3H]‐NMS binding assay. More on the design: expressed in transfected cells. The procedure: Cell membranes from FreeStyle 293 cells transiently expressing human M1R were incubated with T‐495 (0.01‐30 μmol/L) and 0.2 nmol/L [^3H]‐NMS (PerkinElmer) in assay buffer as described above. After 2 hours at room temperature, the binding was terminated by filtration through GF/C filter plates using a cell harvester and washed five times with 300 μl of 50 mmol/L Tris‐HCl. GF/C plates were dried at 42°C and then 25 μl of microscint 0 was added. Radioactivity was measured by Topcount.

A further series addresses T2, Cannabinoid CB2 (Homo sapiens, UniProt P34972).
T2 construct: purchased Eurofins Panlabs Taiwan Ltd
The series is described as follows: Selectivity panel. The series is classed as binding.
Text: as §1

Another series concerns the target T3, Opiate μ (OP3, MOP) (Homo sapiens, UniProt P35372).
T3 construct: purchased Eurofins Panlabs Taiwan Ltd
The series is described as follows: Selectivity panel. The series is classed as binding.
Text: as §1

The target in series [2] is T4, Cholecystokinin CCK1 (CCKA) (Homo sapiens, UniProt P32238).
T4 construct: purchased Eurofins Panlabs Taiwan Ltd
The series is described as follows: Selectivity panel. The series is classed as binding.
Text: as §1

For series [3], the system named is Calcium channel L-type, dihydropyridine. Nature of the series: Selectivity panel. The series is classed as binding.
Text: as §1

For the next series, the system named is Glutamate, AMPA. The series is described as follows: Selectivity panel. The series is classed as binding.
Text: as §1

Series [4] concerns CaMKIIα‐tTA/A53T α‐syn dTg mice. Nature of the series: Contextual fear conditioning (CFC) test. The series is classed as in vivo, mouse. The procedure: The CFC test was performed in a clear conditioning chamber (33 cm wide, 25 cm long, and 28 cm high; O’Hara & Co., Ltd.) surrounded by a sound‐attenuating box. The illumination in the chamber was maintained at 100 lux. Conditioned stimulus (CS) and unconditioned stimulus (US) were automatically delivered by a tone generator and a shock generator (O’Hara & Co., Ltd.), respectively. On Day 1 (habituation phase), vehicle was orally administered, and mice were placed in the conditioning chamber. They were allowed to freely explore for 120 seconds and then returned to their home cages. […] Mice were placed in the chamber for 120 seconds before the onset of a tone (CS, 60 dB for 30 s). The last 2 seconds of the CS were paired with a foot shock (US, 0.25 mA), and mice were removed and returned to their home cages 180 seconds after the US. […] Mice were again placed in the same chamber for 180 seconds. Freezing behavior was analyzed using ImageJ FZ4 (O’Hara & Co., Ltd.) during the conditioning and retention phases.

T4 sequence (P32238 whole entry): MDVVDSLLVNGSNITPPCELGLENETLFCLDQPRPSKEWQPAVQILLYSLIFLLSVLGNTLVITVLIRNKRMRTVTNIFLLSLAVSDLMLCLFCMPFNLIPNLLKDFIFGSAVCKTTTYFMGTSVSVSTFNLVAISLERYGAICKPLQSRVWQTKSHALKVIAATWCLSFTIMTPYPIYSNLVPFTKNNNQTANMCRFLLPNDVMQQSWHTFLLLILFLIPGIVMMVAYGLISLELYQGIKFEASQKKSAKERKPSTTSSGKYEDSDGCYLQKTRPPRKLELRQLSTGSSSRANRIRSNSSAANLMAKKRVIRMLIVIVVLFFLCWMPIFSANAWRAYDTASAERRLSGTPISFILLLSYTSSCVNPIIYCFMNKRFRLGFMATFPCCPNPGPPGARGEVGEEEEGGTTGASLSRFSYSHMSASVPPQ
T2 sequence (P34972 whole entry): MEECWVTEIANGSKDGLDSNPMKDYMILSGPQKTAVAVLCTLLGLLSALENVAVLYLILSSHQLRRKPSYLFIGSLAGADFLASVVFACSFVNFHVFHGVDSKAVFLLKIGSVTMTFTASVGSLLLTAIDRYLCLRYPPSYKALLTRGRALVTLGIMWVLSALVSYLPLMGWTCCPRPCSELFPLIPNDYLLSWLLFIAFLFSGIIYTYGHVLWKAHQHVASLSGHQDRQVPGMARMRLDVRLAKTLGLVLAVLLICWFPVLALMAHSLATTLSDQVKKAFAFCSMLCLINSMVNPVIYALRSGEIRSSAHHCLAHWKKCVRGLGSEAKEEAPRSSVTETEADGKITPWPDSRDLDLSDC
T3 sequence (P35372 whole entry): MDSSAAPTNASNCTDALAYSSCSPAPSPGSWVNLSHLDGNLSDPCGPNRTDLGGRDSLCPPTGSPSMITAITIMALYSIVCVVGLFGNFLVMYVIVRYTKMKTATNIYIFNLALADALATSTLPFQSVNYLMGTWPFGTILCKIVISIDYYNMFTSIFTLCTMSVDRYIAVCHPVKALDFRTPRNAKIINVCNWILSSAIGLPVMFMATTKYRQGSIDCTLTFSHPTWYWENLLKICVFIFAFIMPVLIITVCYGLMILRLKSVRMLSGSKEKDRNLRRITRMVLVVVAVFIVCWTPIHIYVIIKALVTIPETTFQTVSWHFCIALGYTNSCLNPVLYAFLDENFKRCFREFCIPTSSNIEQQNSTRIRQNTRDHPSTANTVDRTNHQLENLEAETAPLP

As for `Cc1ccc(Cc2cc3c(=O)n([C@H]4CCCC[C@@H]4O)cnc3c3ccccc23)cn1` [MK‐7622, 3‐((1S,2S)‐2‐hydroxycyclohexyl)‐6‐((6‐methylpyridin‐3‐yl)methyl)benzo[h]quinazolin‐4(3H)‐one, reference compound], in the series with patients with AD, the “cognition as adjunctive therapy with AChEIs” value is given as “did not improve cognition”. Moreover, the “patients affected by diarrhea” value in the series on patients with AD (estimated effective dose) is on record as 15%.

`Cc1c(Cc2ccc(Cl)nc2)cc2c(c1Cl)OCN([C@H]1CCC[C@@H]1O)C2=O` [T‐495, 8‐chloro‐6‐((6‐chloropyridin‐3‐yl)methyl)‐3‐((1S,2S)‐2‐hydroxycyclopentyl)‐7‐methyl‐2,3‐dihydro‐4H‐1,3‐benzoxazin‐4‐one]: the “significant inhibition or stimulation (≥50%) in panel of 106 targets” value in series [1] is given as “No significant inhibition or stimulation (≥50%) was observed, except for two targets”. For the same compound, the “concentration without inhibition of [3H]‐NMS binding relative to that required for procognitive efficacy” value at human M1R is “up to 100 fold”. Further, the “inhibition of [3H]‐NMS binding to M1R” value at human M1R (T‐495 concentrations below 30 μmol/L) is on record as “did not inhibit”. Also, the inhibition at 10 µM at Cannabinoid CB2 turned out to be 12%; on Opiate μ (OP3, MOP) it was 12%; in series [2], 2%. Besides, the “% inhibition at 10 μM” value is reported as 27% in series [3] and 20% with Glutamate, AMPA. Further, the “level of freezing behavior during the conditioning phase” value in series [4] (3 mg/kg p.o.) is “did not change”. Moreover, the “reduced level of freezing behavior during the retention phase” value in series [4] (3 mg/kg p.o. 1 h before conditioning and retention) is listed as “significantly reversed”.

Source of the values: PMC6986443, “T‐495, a novel low cooperative M1 receptor positive allosteric modulator, improves memory deficits associated with cholinergic dysfunction and is characterized by low gastrointestinal side effect risk” (Pharmacology Research & Perspectives, 2020).
